Consider 26 molecules from patent publication US20250049036A1 (priority 2021, published 2025).

Test [1] has as its system Pyricularia oryzae. Kind of test: microbe, parasite or virus in culture. The settings on record: 168 h, read-out: control compared to the untreated check. In kind it is cell-based.
Test [2] deals with Phakopsora pachyrhizi. The test can be described thus: Phakopsora pachyrhizi test on soybean, preventive, greenhouse. In kind it is in vivo. The settings on record: preventive spray on soybean, inoculated one day after treatment, read-out: control (efficacy, disease severity) compared to the untreated check. How it is done: The respective compound was dissolved in 2% dimethyl sulfoxide/acetone and then mixed with water containing emulsifier to the calibrated spray volume of 30 mL. Each spray solution was poured into a spray bottle for further application.
To test the preventive activity of a compound, healthy young soybean plants, raised in the greenhouse, were sprayed with the active compound preparation at the stated application rate inside the spray cabinets using hollow cone nozzles. One day after treatment, the plants were inoculated with a conidial suspension containing 2×10^5 Phakopsora pachyrhizi inoculum. The inoculated plants were then kept in a greenhouse chamber at 22-24° C. temperature and 80-90% relative humidity for disease expression.

The subject of test [3] is Botrytis cinerea. Kind of test: Botrytis cinerea test on tomato, preventive, greenhouse. Type of test: in vivo. The settings on record: preventive spray on bean/chili plants (heading: tomato), inoculated one day after treatment, read-out: control (efficacy, disease severity) compared to the untreated check.
The subject of test [4] is Colletotrichum capsici. Kind of test: Colletotrichum capsici (anthracnose) mycelial radial growth on potato dextrose agar. In kind it is cell-based. The note with it: Colletotrichum truncatum, 168 h, 25° C., seven days, read-out: control compared to the untreated check. How it is done: The compounds were dissolved in 0.3% dimethyl sulfoxide and then added to potato dextrose agar medium just prior to dispensing it into petri dishes. 5 mL medium, with the compound in the desired concentration, was dispensed into 60 mm sterile petri-plates. After solidification, each plate was seeded with a 5 mm size mycelial disc taken from the periphery of an actively growing virulent culture plate. The plates were incubated in growth chambers at 25° C. temperature and 60% relative humidity for seven days and the radial growth was measured and compared to the one of the untreated control.

The test system of test [5] is Parastagonospora nodorum. The test can be described thus: Parastagonospora nodorum (PARANO) spore growth inhibition in liquid medium, 96-well microtiter plate, OD 600. In kind it is cell-based. The note with it: spore suspension in PDB liquid medium, 18° C., 5-6 days, OD at 600, read-out: control compared to the untreated check. The method, then: Potato dextrose (PDB) liquid medium (Difco) containing a PARANO (10^5 spores/ml) spore suspension was prepared. For the inhibition assay, each test compound was solved in dimethyl sulfoxide. 100 μl of the test compound in media-solution was added to a 96-well microtiter plate, consequently, the same volume (100 μl) of spore suspension was added to the well making the final test concentrations and the plate was incubated at 18° C. for 5-6 days. The growth inhibition was evaluated by measuring the OD at 600. Percent inhibition was calculated with the below formula: […]

Where only a bound is given, the exact number is not on record here.

On to `Cn1cc(Br)c2cc(C(=O)NC(C)(C)Cc3ccccc3F)cnc21` [Compound 58, 3-bromo-N-(1-(2-fluorophenyl)-2-methylpropan-2-yl)-1-methyl-1H-pyrrolo[2,3-b]pyridine-5-carboxamide], for which, in test [1], the inhibition of growth at 300 ppm is at least 70%. In addition, the pest or weed control at 500 ppm in test [2] is at least 70%.
`Cn1cc(Br)c2cc(C(=O)NC(C)(C)Cc3ccccc3Cl)cnc21` [Compound 84, 3-bromo-N-(1-(2-chlorophenyl)-2-methylpropan-2-yl)-1-methyl-1H-pyrrolo[2,3-b]pyridine-5-carboxamide]: the pest or weed control at 500 ppm in test [3] and in test [2] was at least 70% in each case.
For `CC(C)CC(C)(Cc1ccccc1)NC(=O)c1cnc2ccsc2c1` (stereo not shown) [Compound 29, N-(2,4-dimethyl-1-phenylpentan-2-yl)thieno[3,2-b] pyridine-6-carboxamide], the inhibition of growth at 300 ppm in test [1] and in test [4] was at least 70% each time. The pest or weed control at 500 ppm in test [2] is at least 70%.
On to `Cc1nc2[nH]ccc2cc1C(=O)NC1(Cc2ccccc2)CC1` [Compound 97, N-(1-benzylcyclopropyl)-6-methyl-1H-pyrrolo[2,3-b]pyridine-5-carboxamide], for which the pest or weed control at 500 ppm in test [3] and in test [2] was at least 70% in each case.
With `CN(C(=O)c1cnc2c(c1)c(Cl)cn2C)C(C)(C)Cc1ccccc1` [Compound 56, 3-chloro-N,1-dimethyl-N-(2-methyl-1-phenylpropan-2-yl)-1H-pyrrolo[2,3-b] pyridine-5-carboxamide], the inhibition of growth at 300 ppm in test [1] and in test [5] was at least 70% in each case. Moreover, in test [2], the pest or weed control at 500 ppm is at least 70%.
As for `CC(C)CC(C)(Cc1ccccc1F)NC(=O)c1cnc2c(ccn2C)c1` (stereo not shown) [Compound 36, N-(1-(2-fluorophenyl)-2,4-dimethylpentan-2-yl)-1-methyl-1H-pyrrolo[2,3-b]pyridine-5-carboxamide], the inhibition of growth at 300 ppm in test [1], in test [4] and in test [5] was at least 70% throughout.
`Cc1ccc(F)cc1C(O)C(C)(C)NC(=O)c1cnc2ccsc2c1` (stereo not shown) [Compound 133, N-(1-(5-fluoro-2-methylphenyl)-1-hydroxy-2-methylpropan-2-yl)thieno[3,2-b] pyridine-6-carboxamide]: the inhibition of growth at 300 ppm in test [1] was at least 70%. Besides, the pest or weed control at 500 ppm in test [2] was at least 70%.
With `C[C@H](NC(=O)c1cnc2c(ccn2C)c1)C(O)(c1cc(Cl)cc(Cl)c1)c1cc(Cl)cc(Cl)c1` [Compound 141], in test [1], the inhibition of growth at 300 ppm was at least 70%. Besides, the pest or weed control at 500 ppm in test [2] was at least 70%.
Regarding `Cc1nc2c(ccn2C)cc1C(=O)NC(C)(Cc1ccccc1)CC(C)C` (stereo not shown) [Compound 34, N-(2,4-dimethyl-1-phenylpentan-2-yl)-1,6-dimethyl-1H-pyrrolo[2,3-b]pyridine-5-carboxamide], the inhibition of growth at 300 ppm in test [1], in test [4] and in test [5] was at least 70% in each case. Further, the pest or weed control at 500 ppm in test [2] is at least 70%.
Take `Cn1ccc2cc(C(=O)NC(C)(C)Cc3ccc(Cl)c(Cl)c3)cnc21` [Compound 24, N-(1-(3,4-dichlorophenyl)-2-methylpropan-2-yl)-1-methyl-1H-pyrrolo[2,3-b]pyridine-5-carboxamide]: the inhibition of growth at 300 ppm in test [1] was at least 70%. In test [2], the pest or weed control at 500 ppm is at least 70%.
As to `CC(c1ccccc1F)C(C)(C)NC(=O)c1cnc2c(c1)c(C1CC1)cn2C` (stereo not shown) [Compound 65, 3-cyclopropyl-N-(3-(2-fluorophenyl)-2-methylbutan-2-yl)-1-methyl-1H-pyrrolo[2,3-b]pyridine-5-carboxamide], in test [1], the inhibition of growth at 300 ppm was at least 70%. The pest or weed control at 500 ppm in test [2] was at least 70%.
On to `Cn1ccc2cc(C(=O)NC(C)(C)Cc3ccc(F)cc3)cnc21` [Compound 74, N-(1-(4-fluorophenyl)-2-methylpropan-2-yl)-1-methyl-1H-pyrrolo[2,3-b]pyridine-5-carboxamide], for which the pest or weed control at 500 ppm in test [3] is at least 70%.
For the molecule `Cn1ccc2cc(C(=O)NC3Cc4ccccc4C3)cnc21` [Compound 76, N-(2,3-dihydro-1H-inden-2-yl)-1-methyl-1H-pyrrolo[2,3-b] pyridine-5-carboxamide], the pest or weed control at 500 ppm in test [3] and in test [2] was at least 70% each time.
`Cn1ccc2cc(C(=O)NC(C)(C)Cc3ccc(F)c(F)c3)cnc21` [Compound 23, N-(1-(3,4-difluorophenyl)-2-methylpropan-2-yl)-1-methyl-1H-pyrrolo[2,3-b]pyridine-5-carboxamide]: the inhibition of growth at 300 ppm in test [1], in test [4] and in test [5] was at least 70% each time. Also, the pest or weed control at 500 ppm in test [2] is at least 70%.
In the case of `Cn1ccc2cc(C(=O)NC(C)(C)C(O)Cc3ccccc3)cnc21` (stereo not shown) [Compound 116, N-(3-hydroxy-2-methyl-4-phenylbutan-2-yl)-1-methyl-1H-pyrrolo[2,3-b]pyridine-5-carboxamide], the inhibition of growth at 300 ppm in test [4] is at least 70%.
As for `CC(C)(Cc1ccccc1)NC(=O)c1cnc2c(c1)CCCC2` [Compound 45, N-(2-methyl-1-phenylpropan-2-yl)-5,6,7,8-tetrahydroquinoline-3-carboxamide], the inhibition of growth at 300 ppm in test [4] and in test [5] was at least 70% each time. Moreover, in test [2], the pest or weed control at 500 ppm was at least 70%.
In the case of `Cc1nc2c(ccn2C)cc1C(=O)NC(C)(C)C(C)c1ccccc1F` (stereo not shown) [Compound 35, N-(3-(2-fluorophenyl)-2-methylbutan-2-yl)-1,6-dimethyl-1H-pyrrolo[2,3-b]pyridine-5-carboxamide], the pest or weed control at 500 ppm in test [3] and in test [2] was at least 70% throughout.
Regarding `Cn1cc(C2CC2)c2cc(C(=O)NC(C)(C)Cc3ccccc3)cnc21` [Compound 54, 3-cyclopropyl-1-methyl-N-(2-methyl-1-phenylpropan-2-yl)-1H-pyrrolo[2,3-b] pyridine-5-carboxamide], the pest or weed control at 500 ppm in test [3] and in test [2] was at least 70% in each case.
As for `CC(C)CC(C)(Cc1ccccc1)NC(=O)c1cc2c(nc1Cl)CCC2` (stereo not shown) [Compound 211, 2-chloro-N-(2,4-dimethyl-1-phenylpentan-2-yl)-6,7-dihydro-5H-cyclopenta[b]pyridine-3-carboxamide], the inhibition of growth at 300 ppm in test [4] and in test [5] was at least 70% throughout.
For the molecule `CCC(O)(CC)C(NC(=O)c1cnc2c(ccn2C)c1)c1ccccc1` (stereo not shown) [Compound 120, N-(2-ethyl-2-hydroxy-1-phenylbutyl)-1-methyl-1H-pyrrolo[2,3-b]pyridine-5-carboxamide], the pest or weed control at 500 ppm in test [3] was at least 70%.
As to `Cn1ccc2cc(C(=O)NC(C)(C)Cc3ccc(Br)cc3)cnc21` [Compound 61, N-(1-(4-bromophenyl)-2-methylpropan-2-yl)-1-methyl-1H-pyrrolo[2,3-b]pyridine-5-carboxamide], the pest or weed control at 500 ppm in test [3] was at least 70%.
Consider `CN(C(=O)c1cnc2c(c1)c(C1CC1)cn2C)C(C)(C)Cc1ccccc1` [Compound 57, 3-cyclopropyl-N,1-dimethyl-N-(2-methyl-1-phenylpropan-2-yl)-1H-pyrrolo[2,3-b] pyridine-5-carboxamide], for which the pest or weed control at 500 ppm in test [3] and in test [2] was at least 70% each time.
`Cc1nc2[nH]ccc2cc1C(=O)NC(C)(Cc1ccccc1)CC(C)C` (stereo not shown) [Compound 96, N-(2,4-dimethyl-1-phenylpentan-2-yl)-6-methyl-1H-pyrrolo[2,3-b]pyridine-5-carboxamide]: the pest or weed control at 500 ppm in test [3] and in test [2] was at least 70% each time.
With `C=C(C)CC(C)(Cc1ccc(F)cc1)NC(=O)c1cnc2c(ccn2C)c1` (stereo not shown) [Compound 181, N-(1-(4-fluorophenyl)-2,4-dimethylpent-4-en-2-yl)-1-methyl-1H-pyrrolo[2,3-b]pyridine-5-carboxamide], the inhibition of growth at 300 ppm in test [4] and in test [5] was at least 70% throughout.
With `CC(Cc1ccccc1)(CC(F)(F)F)NC(=O)c1cnc2ccsc2c1` (stereo not shown) [Compound 25, N-(4,4,4-trifluoro-2-methyl-1-phenylbutan-2-yl)thieno[3,2-b] pyridine-6-carboxamide], the inhibition of growth at 300 ppm in test [1], in test [4] and in test [5] was at least 70% each time. Besides, the pest or weed control at 500 ppm in test [2] was at least 70%.
As for `CSc1ccc(C(NC(=O)c2cnc3c(ccn3C)c2)C(C)C)cc1` (stereo not shown) [Compound 90], the inhibition of growth at 300 ppm in test [4] and in test [5] was at least 70% throughout.
